Literature values in US20220192199A1, “METHOD FOR REMOVING BIOFILM” (KAO CORPORATION, priority 2019, published 2022).

Details: primary dissociation constant

Row | SMILES | pKa1
1 | O=C(O)[C@H](O)[C@@H](O)[C@H](O)[C@H](O)CO [gluconic acid] | 3.86
2 | O=C(O)CCO [3-hydoxypropionic acid] | 4.5
